Data: ChEMBL document CHEMBL1201862, “PubChem BioAssay data set” (2004)
Blank lines part the entries; values can stand above or below the compound they belong to. Calls of active or inactive are those of the source.

Columns and labels:
[1] = biological target: T1, Short transient receptor potential channel 4 (Mus musculus, UniProt Q9QUQ5); assay: block of DAMGO-driven TRPC4 calcium entry – cell-based, HEK293 TRPC4/mu-opioid, Fluo-4 calcium, dose response (AID 434942); format: functional;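 further: potency of inhibitors blocking the TRPC4 calcium response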
T1 sequence (Q9QUQ5 whole entry): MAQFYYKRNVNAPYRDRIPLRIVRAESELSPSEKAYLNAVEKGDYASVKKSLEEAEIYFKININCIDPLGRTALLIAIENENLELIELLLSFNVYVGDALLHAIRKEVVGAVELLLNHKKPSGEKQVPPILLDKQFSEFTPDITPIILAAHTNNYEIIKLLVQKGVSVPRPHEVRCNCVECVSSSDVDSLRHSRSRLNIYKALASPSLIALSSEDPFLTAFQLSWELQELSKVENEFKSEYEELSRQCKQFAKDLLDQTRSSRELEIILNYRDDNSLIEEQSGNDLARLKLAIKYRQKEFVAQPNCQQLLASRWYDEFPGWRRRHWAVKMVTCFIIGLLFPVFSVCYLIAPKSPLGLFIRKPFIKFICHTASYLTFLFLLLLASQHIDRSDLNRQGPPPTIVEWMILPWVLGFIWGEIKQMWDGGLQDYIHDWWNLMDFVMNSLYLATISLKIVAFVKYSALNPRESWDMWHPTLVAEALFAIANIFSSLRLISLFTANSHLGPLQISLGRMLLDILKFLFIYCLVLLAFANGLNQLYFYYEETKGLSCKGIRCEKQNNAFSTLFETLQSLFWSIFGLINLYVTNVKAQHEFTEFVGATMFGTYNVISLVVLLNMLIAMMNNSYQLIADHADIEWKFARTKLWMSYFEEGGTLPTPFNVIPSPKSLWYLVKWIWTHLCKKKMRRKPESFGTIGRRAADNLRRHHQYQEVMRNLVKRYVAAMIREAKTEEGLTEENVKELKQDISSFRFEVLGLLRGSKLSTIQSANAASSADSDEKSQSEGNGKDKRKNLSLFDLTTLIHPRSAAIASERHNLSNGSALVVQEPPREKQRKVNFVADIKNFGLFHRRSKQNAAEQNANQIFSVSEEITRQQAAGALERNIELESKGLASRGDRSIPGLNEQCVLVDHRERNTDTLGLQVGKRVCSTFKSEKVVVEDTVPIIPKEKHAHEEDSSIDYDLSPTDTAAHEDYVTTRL

Cytochrome P450 3A4 = Cytochrome P450 3A4 (Homo sapiens, UniProt P08684); conditions: Potency;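 further: confirmatory qHTS run detecting inhibitors and substrates of CYP3A4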
Chain of Cytochrome P450 3A4 (P08684 whole entry): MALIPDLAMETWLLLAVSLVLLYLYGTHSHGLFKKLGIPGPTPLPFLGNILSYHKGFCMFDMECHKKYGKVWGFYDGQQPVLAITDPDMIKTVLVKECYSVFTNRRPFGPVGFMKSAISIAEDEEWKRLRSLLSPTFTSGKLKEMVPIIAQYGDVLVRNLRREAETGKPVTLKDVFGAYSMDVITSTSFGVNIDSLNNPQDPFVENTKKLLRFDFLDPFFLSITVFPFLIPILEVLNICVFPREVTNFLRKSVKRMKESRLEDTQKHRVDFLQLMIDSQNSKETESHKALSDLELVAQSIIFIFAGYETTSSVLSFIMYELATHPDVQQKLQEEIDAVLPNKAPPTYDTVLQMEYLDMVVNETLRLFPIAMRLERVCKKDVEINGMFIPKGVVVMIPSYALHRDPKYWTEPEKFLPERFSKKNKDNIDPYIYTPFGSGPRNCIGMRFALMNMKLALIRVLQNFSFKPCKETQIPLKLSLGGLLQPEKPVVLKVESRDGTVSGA

Genome polyprotein = Genome polyprotein (dengue virus type 2, UniProt P29990); assay: flavivirus cap methylation enzyme inhibition – biochemical, confirmation dose response, primary screen (AID 588689); format: functional
Chain of Genome polyprotein (P29990 2492-3391 limits assumed): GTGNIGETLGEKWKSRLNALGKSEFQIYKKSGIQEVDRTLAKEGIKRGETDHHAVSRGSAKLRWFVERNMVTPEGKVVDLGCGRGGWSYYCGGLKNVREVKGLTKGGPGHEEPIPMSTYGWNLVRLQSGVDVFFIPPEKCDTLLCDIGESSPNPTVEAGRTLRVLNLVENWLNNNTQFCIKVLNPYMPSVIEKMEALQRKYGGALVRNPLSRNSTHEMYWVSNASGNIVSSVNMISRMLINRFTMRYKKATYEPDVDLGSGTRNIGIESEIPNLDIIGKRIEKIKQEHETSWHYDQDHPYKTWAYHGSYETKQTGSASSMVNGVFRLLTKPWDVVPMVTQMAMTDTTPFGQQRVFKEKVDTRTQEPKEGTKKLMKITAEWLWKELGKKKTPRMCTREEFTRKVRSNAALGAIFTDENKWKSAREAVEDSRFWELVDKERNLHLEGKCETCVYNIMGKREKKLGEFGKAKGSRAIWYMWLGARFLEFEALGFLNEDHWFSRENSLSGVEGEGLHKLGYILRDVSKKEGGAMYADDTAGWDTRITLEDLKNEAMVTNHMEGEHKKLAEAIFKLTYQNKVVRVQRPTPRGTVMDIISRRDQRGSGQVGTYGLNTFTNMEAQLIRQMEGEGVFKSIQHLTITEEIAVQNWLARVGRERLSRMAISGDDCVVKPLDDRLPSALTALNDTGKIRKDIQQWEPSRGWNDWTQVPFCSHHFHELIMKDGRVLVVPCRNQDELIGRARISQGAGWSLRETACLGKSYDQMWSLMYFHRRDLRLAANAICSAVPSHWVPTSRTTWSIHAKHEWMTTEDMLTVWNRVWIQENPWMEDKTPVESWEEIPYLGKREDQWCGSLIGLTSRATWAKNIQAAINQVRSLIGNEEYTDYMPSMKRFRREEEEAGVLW

[2] = biological target: T2, Polyadenylate-binding protein 1 (Homo sapiens, UniProt P11940); assay: MLLE binding blockers, Cy5 peptide tracer – biochemical, fluorescence polarization, Cy5-PAM2 peptide, secondary, miRNA deadenylation inhibitor project, dose response (AID 602260); format: functional; conditions: read-out: IC50_Mean
T2 sequence (P11940 whole entry, the tested form may be a part): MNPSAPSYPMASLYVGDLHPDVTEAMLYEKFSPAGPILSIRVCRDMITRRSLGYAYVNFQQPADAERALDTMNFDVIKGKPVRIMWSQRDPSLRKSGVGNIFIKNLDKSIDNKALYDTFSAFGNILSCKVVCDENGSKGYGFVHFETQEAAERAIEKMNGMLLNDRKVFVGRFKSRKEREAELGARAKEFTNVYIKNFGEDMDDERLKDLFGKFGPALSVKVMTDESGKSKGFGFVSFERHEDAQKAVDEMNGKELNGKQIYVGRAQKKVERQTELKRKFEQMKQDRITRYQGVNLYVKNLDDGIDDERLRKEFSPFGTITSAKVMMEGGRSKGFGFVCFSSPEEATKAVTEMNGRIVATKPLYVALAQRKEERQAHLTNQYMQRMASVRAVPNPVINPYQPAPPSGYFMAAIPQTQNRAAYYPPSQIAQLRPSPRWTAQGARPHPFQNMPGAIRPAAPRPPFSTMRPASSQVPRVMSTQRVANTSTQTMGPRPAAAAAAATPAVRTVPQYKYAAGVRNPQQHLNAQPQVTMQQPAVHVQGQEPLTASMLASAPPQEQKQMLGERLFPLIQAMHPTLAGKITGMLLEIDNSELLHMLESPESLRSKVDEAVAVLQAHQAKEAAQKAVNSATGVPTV

[3] = biological target: T2, Polyadenylate-binding protein 1; assay: MLLE domain peptide-binding blockers, IC50 – biochemical, fluorescence polarization, FITC-PAM2 peptide, dose response (AID 602259); format: functional; conditions: read-out: IC50_Mean
[4] = intracellular Trypanosoma cruzi inhibitors in host cells – cell-based, plate reader, cherry-pick samples, set 3, dose response (AID 651818); format: functional;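 further: compounds incubated with infected cells for about four days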
Paired box protein Pax-8 = Paired box protein Pax-8 (Homo sapiens, UniProt Q06710); assay: PAX8 transcriptional activity inhibition in RMG-I – RMG-I cells, luciferase, cherry-pick, dose response (AID 687027); format: functional, cell-based;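 further: luciferase reporter driven by Pax8 target thyroperoxidase promoter measured by SteadyGlo luminescence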
Chain of Paired box protein Pax-8 (Q06710 whole entry): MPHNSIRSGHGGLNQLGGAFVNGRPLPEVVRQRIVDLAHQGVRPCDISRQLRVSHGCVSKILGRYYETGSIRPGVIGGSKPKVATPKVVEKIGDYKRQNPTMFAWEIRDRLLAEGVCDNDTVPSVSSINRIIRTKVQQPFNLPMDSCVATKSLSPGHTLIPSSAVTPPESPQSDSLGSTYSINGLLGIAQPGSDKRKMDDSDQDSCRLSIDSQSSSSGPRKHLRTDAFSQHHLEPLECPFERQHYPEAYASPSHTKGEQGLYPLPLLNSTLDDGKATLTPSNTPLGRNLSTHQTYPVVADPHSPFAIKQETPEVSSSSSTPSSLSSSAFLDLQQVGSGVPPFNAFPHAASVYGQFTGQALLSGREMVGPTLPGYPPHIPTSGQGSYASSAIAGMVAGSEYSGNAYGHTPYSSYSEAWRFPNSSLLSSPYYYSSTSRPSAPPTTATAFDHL

[5] = OVCAR-3 cell viability loss – plate reader, dry powder samples, PAX8 inhibitor project, dose response (AID 743044); format: functional, cell-based
[6] = OVCAR8 cell viability loss – plate reader, dry powder samples, PAX8 project, dose response (AID 743197); format: functional, cell-based; conditions: OVCAR-8

Compound: Cc1cc(C(=O)N/N=C\c2cc(C(C)(C)C)ccc2O)[nH]n1
EC50 [1]: 6.68 µM (active)

Compound: N#Cc1c(N)sc(=S)c2c1CCCC2
IC50 (Genome polyprotein): 90.8 µM (active)
IC50 [2]: > 66 µM (inactive)
IC50 [3]: 57.4 µM (inactive)

Compound: C[C@@H]1CN([C@@H](C)CO)C(=O)c2cc(NS(=O)(=O)c3ccc(Cl)cc3)ccc2O[C@H]1CN(C)Cc1ccc(Cl)c(Cl)c1
AC50 [4]: 3.37 µM (active)

Compound: CCOc1ccc(Cl)cc1/C=N/O
EC50 [1]: 4.22 µM (active)

Compound: C[C@@H]1CN([C@H](C)CO)C(=O)c2cccc(NC(=O)Nc3ccc(C(F)(F)F)cc3)c2O[C@@H]1CN(C)Cc1ccc2c(c1)OCO2
AC50 [4]: 2.54 µM (active)

Compound: C[C@@H]1CN([C@H](C)CO)C(=O)c2cc(NC(=O)Nc3ccc(C(F)(F)F)cc3)ccc2O[C@@H](C)CCCCO[C@H]1CN(C)S(=O)(=O)c1ccccc1
AC50 (Paired box protein Pax-8): 2.23 µM (active)
AC50 [5]: 31.8 µM (active)

Compound: C[C@H](CO)N1C[C@H](C)[C@H](CN(C)Cc2ccc(C(F)(F)F)cc2)OCCCC[C@H](C)Oc2ccc(NS(=O)(=O)c3ccc(F)cc3)cc2C1=O
AC50 (Paired box protein Pax-8): 7.71 µM (active)
AC50 [5]: 53.3 µM (active)
AC50 [6]: 58.2 µM (active)

Compound: COC(=O)[C@@H]1C[C@@]2(O)[C@@H](O)[C@@H](O)[C@@H](O)C[C@H]2N1Cc1cc(F)ccc1F
AC50 (Cytochrome P450 3A4): 25.1 µM (inconclusive)

Compound: CC1CCc2c(sc(/N=C/N(C)C)c2C#N)C1 (stereo unspecified)
EC50 [1]: 2.99 µM (active)

Compound: C[C@H]1CN([C@@H](C)CO)C(=O)Cc2cc(NC(=O)Nc3ccccc3)ccc2O[C@H]1CN(C)Cc1ccc(C(=O)Nc2ccccc2N)cc1
AC50 [4]: 2.93 µM (active)

Compound: Cc1ccc([N+](=O)[O-])cc1N
AC50 (Cytochrome P450 3A4): 31.6 µM (inconclusive)

The remaining lines, values ahead:

AC50 (Cytochrome P450 3A4): 7.94 µM (inconclusive)
Compound: O=C(O)c1sccc1S(=O)(=O)Nc1ccc(Cl)cc1

AC50 (Cytochrome P450 3A4): 12.6 µM (inconclusive)
Compound: CC(=O)N1[C@H](C)C=C[C@]1(Cc1ccccc1)C(=O)NCc1ccccn1

EC50 [1]: 1.88 µM (active)
Compound: CC(C)c1nc(CNC(=O)CC2C(=O)NCCN2Cc2ccc(F)cc2Cl)cs1 (stereo unspecified)

EC50 [1]: 4.22 µM (active)
Compound: CCC1C=C(c2ccccc2)C=CN=C1N(CC)CC (stereo unspecified)

IC50 (Genome polyprotein): 38.1 µM (active)
Compound: COc1cccc(/C=C2/C(=O)NN(c3ccc(F)cc3)C2=O)c1
